Reference: patent US4803167A, “Monoclonal antidigoxtin antibodies” (The General Hospital Corporation, priority 1982, dated 1989)
Where two headings read alike, the source gives them in different places.

Columns and labels:
Experiment in all cases: Specificity determination, inhibition of [3H]digoxin binding in dextran charcoal RIA
[1] = tested on: monoclonal anti-digoxin antibody Dig 35-20; parameters: species or system mouse (A/J); details: for amount of inhibitor required to give 50% inhibition relative to the amount of digoxin which gave 50% inhibition: inhibition of antibody binding to [3H]digoxin
Description: (§1) The specificity of each antidigoxin antibody for related cardiac glycosides was assessed by the inhibition of binding of antibody in the dextran charcoal radioimmunoassay Smith (1972), supra. To a constant amount of H^3 -digoxin (1.5 ng) in 1 ml of buffer is added different amounts ([…]) of various cardiac glycosides: digoxin, digitoxin, digitoxigenin, digoxigenin, acetyl-strophanthidin, ouabain, deslanoside, and endogenous steroids such as chloresterol, cortisol, androsterone, 17-[beta]-estradiol, progesterone, and testosterone. After 5 minutes, a constant amount of anti-digoxin antibody was added and the assay was continued as described above. Comparison among different antidigoxin antibodies with respect to their fine specificity was made by determining the amount of cardiac glycoside required to achieve 50% inhibition relative to that required for cold digoxin.
(§2) Specificity of monoclonal antibody binding site for related cardiac glycosides was examined by means of hapten inhibition experiments in which the binding of monoclonal antibody to H^3 -digoxin was inhibited by cold digoxin and related cardiac glycosides.

[2] = tested on: monoclonal anti-digoxin antibody Dig 26-20; parameters: species or system mouse (A/J); details: for amount of inhibitor required to give 50% inhibition relative to the amount of digoxin which gave 50% inhibition: inhibition of antibody binding to [3H]digoxin
Description: as §1, §2

[3] = tested on: monoclonal anti-digoxin antibody Dig 25-54; parameters: species or system mouse (A/J); details: for amount of inhibitor required to give 50% inhibition relative to the amount of digoxin which gave 50% inhibition: inhibition of antibody binding to [3H]digoxin
Description: as §1, §2

[4] = tested on: monoclonal anti-digoxin antibody Dig 26-10; parameters: species or system mouse (A/J); details: for amount of inhibitor required to give 50% inhibition relative to the amount of digoxin which gave 50% inhibition: inhibition of antibody binding to [3H]digoxin
Description: as §1, §2

[5] = tested on: monoclonal anti-digoxin antibody Dig 26-40; parameters: species or system mouse (A/J); details: for amount of inhibitor required to give 50% inhibition relative to the amount of digoxin which gave 50% inhibition: inhibition of antibody binding to [3H]digoxin
Description: as §1, §2

[6] = tested on: monoclonal anti-digoxin antibody Dig 26-30; parameters: species or system mouse (A/J); details: for amount of inhibitor required to give 50% inhibition relative to the amount of digoxin which gave 50% inhibition: inhibition of antibody binding to [3H]digoxin
Description: as §1, §2

[7] = tested on: Sheep Anti-Dig Serum (heterogeneous anti-digoxin antiserum); details: inhibition of antibody binding to [3H]digoxin
Description: Antisera specific for digoxin was prepared in sheep as previously described by Curd et al, Proc. Nat. Acad. Sci. 65: 2401 (1971). High affinity antidigoxin sheep antisera was used in the clinical RIA for digoxin (described below).
as §1, §2

[8] = highest concentration tested 10^-4 M

Compound	inhibition of binding of [3H]digoxin by endogenous steroids [1, 8]	inhibition of binding of [3H]digoxin by endogenous steroids [2, 8]	inhibition of binding of [3H]digoxin by endogenous steroids [3, 8]	inhibition of binding of [3H]digoxin by endogenous steroids [4, 8]	inhibition of binding of [3H]digoxin by endogenous steroids [5, 8]	inhibition of binding of [3H]digoxin by endogenous steroids [6, 8]	amount of inhibitor required to give 50% inhibition relative to the amount of digoxin which gave 50% inhibition [1]	amount of inhibitor required to give 50% inhibition relative to the amount of digoxin which gave 50% inhibition [2]	amount of inhibitor required to give 50% inhibition relative to the amount of digoxin which gave 50% inhibition [3]	amount of inhibitor required to give 50% inhibition relative to the amount of digoxin which gave 50% inhibition [4]	amount of inhibitor required to give 50% inhibition relative to the amount of digoxin which gave 50% inhibition [5]	amount of inhibitor required to give 50% inhibition relative to the amount of digoxin which gave 50% inhibition [6]	other results
4-androstedione													inhibition of binding of [3H]digoxin by endogenous steroids [1]: No significant inhibition; inhibition of binding of [3H]digoxin by endogenous steroids [2]: No significant inhibition; inhibition of binding of [3H]digoxin by endogenous steroids [3]: No significant inhibition; inhibition of binding of [3H]digoxin by endogenous steroids [4]: No significant inhibition; inhibition of binding of [3H]digoxin by endogenous steroids [5]: No significant inhibition; inhibition of binding of [3H]digoxin by endogenous steroids [6]: No significant inhibition
C[C@]12CC[C@@H]3c4ccc(O)cc4CC[C@H]3[C@@H]1CC[C@@H]2O [17-[beta]-estradiol]	No significant inhibition	No significant inhibition	No significant inhibition	No significant inhibition	No significant inhibition	No significant inhibition							
CC(=O)O[C@H]1CC[C@]2(C=O)[C@H]3CC[C@]4(C)[C@@H](C5=CC(=O)OC5)CC[C@]4(O)[C@@H]3CC[C@]2(O)C1 [Acetylstrophanthidin]							110	0.70	> 100	1.50	2.30	0.85	
C[C@H]1O[C@@H](O[C@H]2CC[C@@]3(C)[C@H](CC[C@@H]4[C@@H]3C[C@@H](O)[C@]3(C)[C@@H](C5=CC(=O)OC5)CC[C@]43O)C2)C[C@H](O)[C@@H]1O[C@H]1C[C@H](O)[C@H](O[C@H]2C[C@H](O)[C@H](O[C@@H]3O[C@H](CO)[C@@H](O)[C@H](O)[C@H]3O)[C@@H](C)O2)[C@@H](C)O1 [Deslanoside]							3.7	1.5	4.3	2.6	2.0	1.6	
C[C@]12CC[C@H](O)C[C@H]1CC[C@@H]1[C@@H]2CC[C@]2(C)[C@@H](C3=CC(=O)OC3)CC[C@]12O [Digitoxigenin]							2.7	2.2	54.0	3.7	4.0	3.6	amount of inhibitor required to give 50% inhibition relative to the amount of digoxin which gave 50% inhibition [7]: 860.0
C[C@H]1O[C@@H](O[C@H]2[C@@H](O)C[C@H](O[C@H]3[C@@H](O)C[C@H](O[C@H]4CC[C@@]5(C)[C@H](CC[C@@H]6[C@@H]5CC[C@]5(C)[C@@H](C7=CC(=O)OC7)CC[C@]65O)C4)O[C@@H]3C)O[C@@H]2C)C[C@H](O)[C@@H]1O [Digitoxin]							4.6	1.0	1.8	1.3	1.4	2.6	amount of inhibitor required to give 50% inhibition relative to the amount of digoxin which gave 50% inhibition [7]: 152.0; amount of inhibitor required to give 50% inhibition relative to the amount of digoxin which gave 50% inhibition ([7]; listed as digitoxin): 150
C[C@@H]1O[C@@H](O[C@H]2C[C@@H](O)[C@]3(CO)[C@H]4[C@H](O)C[C@]5(C)[C@@H](C6=CC(=O)OC6)CC[C@]5(O)[C@@H]4CC[C@]3(O)C2)[C@H](O)[C@H](O)[C@H]1O [Ouabain]							333	53	> 100	66	78	84	amount of inhibitor required to give 50% inhibition relative to the amount of digoxin which gave 50% inhibition [7]: > 10^5
CC(C)CCC[C@@H](C)[C@H]1CC[C@H]2[C@@H]3CC=C4C[C@@H](O)CC[C@]4(C)[C@H]3CC[C@]12C [cholesterol]	No significant inhibition	No significant inhibition	No significant inhibition	No significant inhibition	No significant inhibition	No significant inhibition							
C[C@]12CCC(=O)C=C1CC[C@@H]1[C@@H]2[C@@H](O)C[C@@]2(C)[C@H]1CC[C@]2(O)C(=O)CO [cortisol]	No significant inhibition	No significant inhibition	No significant inhibition	No significant inhibition	No significant inhibition	No significant inhibition							
CC(=O)[C@H]1CC[C@H]2[C@@H]3CCC4=CC(=O)CC[C@]4(C)[C@H]3CC[C@]12C [progesterone]	No significant inhibition	No significant inhibition	No significant inhibition	No significant inhibition	No significant inhibition	No significant inhibition							
C[C@]12CC[C@H]3[C@@H](CCC4=CC(=O)CC[C@@]43C)[C@@H]1CC[C@@H]2O [testosterone]													inhibition of binding of [3H]digoxin by endogenous steroids [1]: No significant inhibition; inhibition of binding of [3H]digoxin by endogenous steroids [2]: No significant inhibition; inhibition of binding of [3H]digoxin by endogenous steroids [3]: No significant inhibition; inhibition of binding of [3H]digoxin by endogenous steroids [4]: No significant inhibition; inhibition of binding of [3H]digoxin by endogenous steroids [5]: No significant inhibition; inhibition of binding of [3H]digoxin by endogenous steroids [6]: No significant inhibition
